Reference: patent US7915282B2, “C2-phenyl-substituted cyclic keto-enols used as pesticides and herbicides” (Bayer Aktiengesellschaft, priority 2000, dated 2011)

Assays:
Format in all cases: in vivo
[1] = tested on: green rice leaf hopper (Nephotettix cincticeps); assay: Nephotettix test; conditions: active compound concentration of 1000 ppm; after 6 days; rice seedlings dipped
Experimental: [table] To produce a suitable preparation of active compound, 1 part by weight of active compound is mixed with the stated amounts of solvent and emulsifier, and the concentrate is diluted with emulsifier-containing, water to the desired concentration. Rice seedlings (Oryza sativa) are treated by being dipped into the preparation of active compound of the desired concentrated and are populated with the green rice leaf hopper (Nephotettix cincticeps) while the leaves are still moist. After the desired period of time, the kill in % is determined. 100% means that all leaf hoppers have been killed; 0% means that none of the leaf hoppers have been killed.

[2] = tested on: larvae of the mustard beetle (Phaedon cochleariae); assay: Phaedon larvae test; conditions: active compound concentration of 1000 ppm; after 7 days; cabbage leaves dipped
Experimental: (§1) [table] To produce a suitable preparation of active compound, 1 part by weight of active compound is mixed with the stated amounts of solvent and emulsifier, and the concentrate is diluted with emulsifier-containing water to the desired concentration. Cabbage leaves (Brassica oleracea) are treated by being dipped into the preparation of active compound of the desired concentration and are populated with larvae of the mustard beetle (Phaedon cochleariae) while the leaves are still moist. After the desired period of time, the kill in % is determined. 100% means that all beetle larvae have been killed; 0% means that none of the beetle larvae have been killed.

[3] = tested on: greenhouse red spider mite (Tetranychus urticae); assay: Tetranychus test (OP-resistant/dip treatment); conditions: active compound concentration of 1000 ppm; after 7 days; infested bean plants dipped
Experimental: [table] To produce a suitable preparation of active compound, 1 part by weight of active compound is mixed with the stated amounts of solvent and emulsifier, and the concentrate is diluted with emulsifier-containing water to the desired concentration. Bean plants (Phaseolus vulgaris) which are heavily infested by all stages of the greenhouse red spider mite (Tetranychus urticae) are dipped into a preparation of active compound of the desired concentration. After the desired period of time, the effect in % is determined. 100% means that all spider mites have been killed; 0% means that none of the spider mites have been killed.

Digitaria [4] = assay: Post-emergence test; conditions: after three weeks
Experimental: (§2) [table] To produce a suitable preparation of active compound, 1 part by weight of active compound is mixed with the stated amount of solvent, the stated amount of emulsifier is added and the concentrate is diluted with water to the desired concentration. Test plants of a height of 5-15 cm are sprayed with the preparation of active compound such that the particular amounts of active compound desired are applied per unit area. The concentration of the spray liquor is chosen such that the particular amount of active compound desired is applied in 1000 l of water/ha. After three weeks, the degree of damage to the plants is rated in % damage in comparison to the development of the untreated control. The figures denote: [table]

Galium = assay: Post-emergence test; conditions: 125 g ai/ha, after three weeks
Experimental: as §2

Lolium [5] = assay: Post-emergence test; conditions: 125 g ai/ha, after three weeks
Experimental: as §2

Setaria [6] = assay: Post-emergence test; conditions: after three weeks
Experimental: as §2

Alopecurus [7] = assay: Pre-emergence test; conditions: after three weeks
Experimental: (§3) [table] To produce a suitable preparation of active compound, 1 part by weight of active compound is mixed with the stated amount of solvent, the stated amount emulsifier is added and the concentrate is diluted with water to the desired concentration. Seeds of the test plants are sown in normal soil. After about 24 hours, the soil is sprayed with the preparation of active compound such that the particular amounts of active compound desired are applied per unit area. The concentration of the spray liquor is chosen such that the particular amounts of active compound desired are applied in 1000 l of water/ha. After three weeks, the degree of damage to the plants is rated in % damage in comparison to the development of the untreated controls. The figures denote: [table]

Avena fatua [8] = assay: Pre-emergence test; conditions: after three weeks
Experimental: as §3

Digitaria [9] = assay: Pre-emergence test; conditions: 125 g ai/ha, after three weeks
Experimental: as §3

Echinochloa [10] = assay: Pre-emergence test; conditions: after three weeks
Experimental: as §3

Lolium [11] = assay: Pre-emergence test; conditions: 125 g ai/ha, after three weeks
Experimental: as §3

Setaria [12] = assay: Pre-emergence test; conditions: 125 g ai/ha, after three weeks
Experimental: as §3

[13] = tested on: peach aphids (Myzus persicae); assay: Myzus test; conditions: active compound concentration of 1000 ppm; after 6 days; infested cabbage leaves dipped
Experimental: as §1, with “oleracea) which are heavily infested by the peach aphids (Myzus persicae)” for “oleracea)”, “concentration.” for “concentration and are populated with larvae of the mustard beetle (Phaedon cochleariae) while the leaves are still moist.”, “aphids” for “beetle larvae”

Sorghum = assay: Post-emergence test; conditions: 125 g ai/ha, after three weeks
Experimental: as §2

Alopecurus [14] = assay: Post-emergence test; conditions: 15 g ai/ha, after three weeks
Experimental: as §2

Avena fatua [15] = assay: Post-emergence test; conditions: 15 g ai/ha, after three weeks
Experimental: as §2

Cotton = assay: Post-emergence test; conditions: after three weeks
Experimental: as §2

Sugar beet [16] = assay: Post-emergence test; conditions: after three weeks
Experimental: as §2

Soya bean [17] = assay: Pre-emergence test; conditions: 125 g ai/ha, after three weeks
Experimental: as §3

Sugar beet [18] = assay: Pre-emergence test; conditions: 125 g ai/ha, after three weeks
Experimental: as §3

Veronica = assay: Pre-emergence test; conditions: 125 g ai/ha, after three weeks
Experimental: as §3

white fly Bemisia tabaci = assay: Bemisia test; conditions: active compound concentration of 1000 ppm; after 10 days; infested cotton plants dipped
Experimental: [table] To produce a suitable preparation of active compound, 1 part by weight of active compound is mixed with the stated amounts of solvent and emulsifier, and the concentrate is diluted with emulsifier-containing water to the desired concentrations. Cotton plants (Gossypium hirsutum) which are infested by eggs, larvae and pupae of the white fly Bemisia tabaci are dipped into a preparation of active compound of the desired concentration. After the desired period of time, the kill in % is determined. 100% means that all animals have been killed; 0% means that none of the animals have been killed.

Soya bean [19] = assay: Post-emergence test; conditions: 125 g ai/ha, after three weeks
Experimental: as §2

Wheat = assay: Post-emergence test; conditions: 125 g ai/ha, after three weeks
Experimental: as §2

[20] = tested on: caterpillars of the owlet moth (Plutella xylostella); assay: Plutella test; conditions: active compound concentration of 1000 ppm; after 7 days; cabbage leaves dipped
Experimental: as §1, with “caterpillars” for “larvae”, “owlet moth (Plutella xylostella)” for “mustard beetle (Phaedon cochleariae)”, “caterpillars” for “beetle larvae”

Echinochloa [21] = assay: Post-emergence test; conditions: 125 g ai/ha, after three weeks
Experimental: as §2

`CCc1cc(C)c(C2=C(O)C(C)(C)NC2=O)c(CC)c1` [Example I-1-a-1] gave a kill in % [1] of 100%.

`CCc1cc(C)c(C2=C(O)C3(CCC(OC)CC3)NC2=O)c(CC)c1` (stereo not drawn) [Example I-1-a-3] showed a kill in % [1] of 100%, a kill in % [2] of 100% and a kill in % [3] of 100%. For the same molecule, the “% damage Digitaria” value (Digitaria [4]; 125 g ai/ha) was 80%, the “% damage Galium” value (Galium) was 80% and the “% damage Lolium” value (Lolium [5]) was 70%. The “% damage Setaria” value (Setaria [6]; 125 g ai/ha) was 90%, the “% damage Alopecurus” value (Alopecurus [7]; 125 g ai/ha) was 100% and the “% damage Avena fatua” value (Avena fatua [8]; 125 g ai/ha) was 95%. The “% damage Digitaria” value (Digitaria [9]) was 100%, the “% damage Echinochloa” value (Echinochloa [10]; 125 g ai/ha) was 100% and the “% damage Lolium” value (Lolium [11]) was 100%. For the same molecule, the “% damage Setaria” value (Setaria [12]) was 100%.

`CCc1cc(CC)c(C2=C(O)C3(CCC(OC)CC3)NC2=O)c(CC)c1` (stereo not drawn) [Example I-1-a-6] was tested, and the kill in % [13] was 100%, the “% damage Digitaria” value (Digitaria [4]; 125 g ai/ha) was 95% and the “% damage Lolium” value (Lolium [5]) was 80%. For the same molecule, the “% damage Setaria” value (Setaria [6]; 125 g ai/ha) was 95%, the “% damage Sorghum” value (Sorghum) was 100% and the “% damage Alopecurus” value (Alopecurus [7]; 60 g ai/ha) was 90%. For the same molecule, the “% damage Avena fatua” value (Avena fatua [8]; 60 g ai/ha) was 80% and the “% damage Echinochloa” value (Echinochloa [10]; 60 g ai/ha) was 90%.

In the case of `CCc1cc(C)cc(C)c1C1=C(O)C2(CCC(C)CC2)NC1=O` (stereo not drawn) [Example I-1-a-9], the kill in % [1] was 100%, the “% damage Alopecurus” value (Alopecurus [14]) was 100% and the “% damage Avena fatua” value (Avena fatua [15]) was 95%. For the same molecule, the “% damage Cotton” value (Cotton; 15 g ai/ha) was 0%, the “% damage Digitaria” value (Digitaria [4]; 15 g ai/ha) was 95% and the “% damage Setaria” value (Setaria [6]; 15 g ai/ha) was 100%. For the same molecule, the “% damage Sugar beet” value (Sugar beet [16]; 15 g ai/ha) was 10%, the “% damage Alopecurus” value (Alopecurus [7]; 125 g ai/ha) was 100% and the “% damage Digitaria” value (Digitaria [9]) was 100%. For the same molecule, the “% damage Lolium” value (Lolium [11]) was 100%, the “% damage Setaria” value (Setaria [12]) was 100% and the “% damage Soya bean” value (Soya bean [17]) was 0%. For the same molecule, the “% damage Sugar beet” value (Sugar beet [18]) was 0% and the “% damage Veronica” value (Veronica) was 90%.

In the case of `C=Cc1cc(C)c(C2=C(OC(=O)C(C)(C)C)C3(CCCCC3)OC2=O)c(C)c1` [Example I-2-b-2], the kill in % [3] was 100%.

`C=Cc1cc(C)c(C2=C(OC(=O)C(C)(C)C)C3(CCC(OC)CC3)OC2=O)c(C)c1` (stereo not drawn) [Example I-2-b-5] gave a kill in % [13] of 100%.

For `C=Cc1cc(C)c(C2=C(OC(=O)C(C)(C)C)C3(CCC(C)CC3)OC2=O)c(C)c1` (stereo not drawn) [Example I-2-b-6], the kill in % [13] was 100% and the kill in % [2] was 100%.

In the case of `C=Cc1cc(C)cc(C)c1C1=C(OC(=O)C(C)(C)C)C2(CCC(OC)CC2)OC1=O` (stereo not drawn) [Example I-2-b-8], the kill in % [2] was 100% and the kill in % [3] was 100%.

Molecule `CCc1cc(C)cc(C)c1C1=C(OC(=O)C(C)(C)C)C2(CCCCC2)OC1=O` [Example I-2-b-9] has a kill in % [1] of 100% and a kill in % (white fly Bemisia tabaci) of 100%.

With `CCc1cc(CC)c(C2=C(OC(=O)C(C)CC)C3(CCC(OC)CC3)OC2=O)c(CC)c1` (stereo not drawn) [Example I-2-b-11] the kill in % [3] was 100%.

In the case of `C=Cc1cc(C)c(C2=C(OC(=O)C(C)CC)C3(CCC(OC)CC3)OC2=O)cc1C` (stereo not drawn) [Example I-2-b-12], the “% damage Cotton” value (Cotton; 125 g ai/ha) was 0%, the “% damage Digitaria” value (Digitaria [4]; 125 g ai/ha) was 95% and the “% damage Lolium” value (Lolium [5]) was 90%. The “% damage Setaria” value (Setaria [6]; 125 g ai/ha) was 95% and the “% damage Soya bean” value (Soya bean [19]) was 0%.

In the case of `C=Cc1cc(C)c(C)cc1C1=C(OC(=O)C(C)C)C2(CCC(OC)CC2)OC1=O` (stereo not drawn) [Example I-2-b-13], the “% damage Cotton” value (Cotton; 125 g ai/ha) was 0%, the “% damage Digitaria” value (Digitaria [4]; 125 g ai/ha) was 80% and the “% damage Lolium” value (Lolium [5]) was 70%. The “% damage Setaria” value (Setaria [6]; 125 g ai/ha) was 95%, the “% damage Soya bean” value (Soya bean [19]) was 0% and the “% damage Wheat” value (Wheat) was 10%.

`CCc1cc(C)cc(C)c1-c1c(O)c(C)c(-c2ccc(F)cc2)oc1=O` [Example I-4-a-1] was tested, and the kill in % [13] was 100%, the kill in % [1] was 100% and the kill in % [2] was 100%. The kill in % [20] was 100%, the kill in % [3] was 100% and the “% damage Cotton” value (Cotton; 125 g ai/ha) was 0%. The “% damage Digitaria” value (Digitaria [4]; 125 g ai/ha) was 100%, the “% damage Echinochloa” value (Echinochloa [21]) was 90% and the “% damage Setaria” value (Setaria [6]; 125 g ai/ha) was 95%. For the same molecule, the “% damage Sorghum” value (Sorghum) was 90%, the “% damage Sugar beet” value (Sugar beet [16]; 125 g ai/ha) was 0% and the “% damage Wheat” value (Wheat) was 20%. The “% damage Alopecurus” value (Alopecurus [7]; 125 g ai/ha) was 100%, the “% damage Digitaria” value (Digitaria [9]) was 100% and the “% damage Lolium” value (Lolium [11]) was 100%. For the same molecule, the “% damage Setaria” value (Setaria [12]) was 100%, the “% damage Soya bean” value (Soya bean [17]) was 0% and the “% damage Sugar beet” value (Sugar beet [18]) was 0%. The “% damage Veronica” value (Veronica) was 95%.
